Results: the supplement of paper PMC10307832

Assays:
Assay in all cases: relative viability (nuclei count vs DMSO), 5 days (fraction); higher = more cells survive
Bexarotene + Pemetrexed = compound: C=C(c1ccc(C(=O)O)cc1)c1cc2c(cc1C)C(C)(C)CCC2(C)C [Bexarotene] + Nc1nc2[nH]cc(CCc3ccc(C(=O)N[C@@H](CCC(=O)O)C(=O)O)cc3)c2c(=O)[nH]1 [Pemetrexed] (partner 0.2 µM)
Procedure, shortened: (§1)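 After 5 days of treatment, lung cancer cells in 1536-well plates were fixed and stained in a single step (final 0.05% Triton X-100, 1% formaldehyde, 1 ug/ml Hoechst) and their nuclei counted on 4× images. Treatment had been applied by pin tool the day after seeding as one drug alone or as a fixed anchor-drug dose with five library-drug doses (not always all listed) in √10 steps. Relative viability is the nuclei count of treated wells divided by that of vehicle wells, and values are medians of duplicate plates.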

Bexarotene + Navitoclax = compound: C=C(c1ccc(C(=O)O)cc1)c1cc2c(cc1C)C(C)(C)CCC2(C)C [Bexarotene] + CC1(C)CCC(c2ccc(Cl)cc2)=C(CN2CCN(c3ccc(C(=O)NS(=O)(=O)c4ccc(N[C@H](CCN5CCOCC5)CSc5ccccc5)c(S(=O)(=O)C(F)(F)F)c4)cc3)CC2)C1 [Navitoclax] (partner 0.5 µM)
Procedure, shortened: as §1

Bexarotene + Phenformin = compound: C=C(c1ccc(C(=O)O)cc1)c1cc2c(cc1C)C(C)(C)CCC2(C)C [Bexarotene] + N=C(N)NC(=N)NCCc1ccccc1 [Phenformin] (partner 250 µM)
Procedure, shortened: as §1

Bexarotene + Trametinib = compound: C=C(c1ccc(C(=O)O)cc1)c1cc2c(cc1C)C(C)(C)CCC2(C)C [Bexarotene] + CC(=O)Nc1cccc(-n2c(=O)n(C3CC3)c(=O)c3c(Nc4ccc(I)cc4F)n(C)c(=O)c(C)c32)c1 [Trametinib] (partner 0.02 µM)
Procedure, shortened: as §1

Cell Line | relative viability (Bexarotene + Pemetrexed; first compound 0.08 µM) | relative viability (Bexarotene + Pemetrexed; first compound 0.253 µM) | relative viability (Bexarotene + Pemetrexed; first compound 0.8 µM) | relative viability (Bexarotene + Pemetrexed; first compound 2.53 µM) | relative viability (Bexarotene + Pemetrexed; first compound 8 µM) | relative viability (Bexarotene + Navitoclax; first compound 0.08 µM) | relative viability (Bexarotene + Navitoclax; first compound 0.253 µM) | relative viability (Bexarotene + Navitoclax; first compound 0.8 µM) | relative viability (Bexarotene + Navitoclax; first compound 2.53 µM) | relative viability (Bexarotene + Navitoclax; first compound 8 µM) | relative viability (Bexarotene + Phenformin; first compound 0.08 µM) | relative viability (Bexarotene + Phenformin; first compound 0.253 µM) | relative viability (Bexarotene + Phenformin; first compound 0.8 µM) | relative viability (Bexarotene + Phenformin; first compound 2.53 µM) | relative viability (Bexarotene + Phenformin; first compound 8 µM) | relative viability (Bexarotene + Trametinib; first compound 0.08 µM) | relative viability (Bexarotene + Trametinib; first compound 0.253 µM) | relative viability (Bexarotene + Trametinib; first compound 0.8 µM) | relative viability (Bexarotene + Trametinib; first compound 2.53 µM) | relative viability (Bexarotene + Trametinib; first compound 8 µM)
HCC-78 | 0.903 | 0.636 | 0.821 | 0.919 | 0.89 | 0.673 | 0.714 | 0.667 | 0.644 | 0.863 | 1.01 | 0.732 | 0.599 | 0.596 | 0.73 | 0.833 | 0.952 | 0.545 | 0.708 | 0.861
NCI-H2405 | 1.25 | 1.09 | 0.939 | 0.977 | 1.07 | 0.999 | 0.814 | 0.753 | 0.926 | 0.786 | 0.448 | 0.443 | 0.296 | 0.408 | 0.36 | 0.823 | 0.819 | 0.66 | 0.749 | 0.693
SK-LU-1 | 1.03 | 1.03 | – | 0.944 | 0.923 | 1.1 | 0.845 | – | 0.645 | 1.09 | 0.633 | 0.667 | – | 0.417 | 0.387 | 0.548 | 0.587 | – | 0.579 | 0.517
EMC-BAC-2 | 0.44 | 0.441 | 0.394 | – | 0.419 | 1.26 | 1.27 | 1.09 | 1.31 | 1.15 | 0.549 | 0.575 | 0.521 | 0.49 | 0.546 | 1.08 | 0.901 | 0.996 | – | 0.88
NCI-H1650 | 0.353 | 0.371 | 0.352 | 0.379 | 0.432 | 1.37 | 1.4 | 1.34 | 1.21 | 1.3 | 0.392 | 0.408 | 0.463 | 0.46 | 0.403 | 0.56 | 0.474 | 0.614 | 0.466 | 0.477
NCI-H596 | 0.47 | 0.482 | 0.451 | 0.456 | 0.736 | 1.02 | 0.85 | 0.707 | 0.973 | 0.829 | 0.811 | 0.743 | 0.747 | 0.828 | 0.776 | 0.862 | 0.876 | 0.654 | 0.762 | 0.802
LCLC-97TM1 | 0.193 | 0.159 | 0.172 | 0.202 | 0.168 | 0.459 | 0.4 | 0.413 | 0.427 | 0.381 | 0.473 | 0.438 | 0.406 | 0.454 | 0.451 | 0.187 | 0.216 | 0.157 | 0.165 | 0.191
H3255 | 0.585 | 0.577 | 0.551 | 0.554 | 0.558 | 0.528 | 0.473 | 0.534 | 0.5 | 0.543 | 0.391 | 0.336 | 0.382 | 0.419 | 0.416 | 0.715 | 0.759 | 0.615 | 0.626 | 0.674
LXF-289 | 1.04 | 1.12 | 1.16 | 0.974 | 1.04 | 1.11 | 1.09 | 1.08 | 1.1 | 0.974 | 0.591 | 0.544 | 0.523 | 0.516 | 0.508 | 0.797 | 0.832 | 0.792 | 0.755 | 0.747
UMC-11 | 0.77 | 0.764 | 0.786 | 0.77 | 0.803 | 0.347 | 0.268 | 0.306 | 0.305 | 0.284 | 0.372 | 0.327 | 0.314 | 0.301 | 0.295 | 0.638 | 0.668 | 0.623 | 0.634 | 0.658
LC-2-ad | 0.294 | 0.279 | 0.28 | 0.247 | 0.302 | 0.576 | 0.485 | 0.432 | 0.368 | 0.284 | 0.607 | 0.578 | 0.611 | 0.521 | 0.546 | 1.06 | 0.941 | 0.96 | 0.968 | 0.948
SK-MES-1 | 1.04 | 1.12 | 1.08 | 0.961 | 0.735 | 1.47 | 1.2 | 1.25 | 1.33 | 1.09 | 0.751 | 0.717 | 0.67 | 0.615 | 0.558 | 0.701 | 0.747 | 0.656 | 0.672 | 0.65
A-427 | 0.938 | 0.872 | 0.794 | 0.773 | 0.904 | 0.959 | 0.877 | 0.882 | 0.933 | 0.816 | 0.322 | 0.305 | 0.348 | 0.3 | 0.307 | 0.726 | 0.643 | 0.629 | 0.517 | 0.599
NCI-H322M | 0.698 | 0.611 | 0.574 | 0.626 | 0.695 | 1.19 | 1.33 | 1.17 | 1.19 | 1.26 | 0.969 | 0.825 | 0.814 | 0.775 | 0.789 | 0.578 | 0.443 | 0.534 | 0.501 | 0.508
HCC-366 | 0.203 | 0.14 | 0.2 | 0.141 | 0.17 | 1.04 | 1.15 | 1.14 | 0.975 | 1.03 | 0.624 | 0.608 | 0.579 | 0.533 | 0.597 | 0.357 | 0.375 | 0.361 | 0.295 | 0.263
NCI-H1975 | 0.327 | 0.331 | 0.305 | 0.334 | 0.323 | 1.29 | 1.19 | 1.3 | 1.22 | 1.09 | 0.492 | 0.419 | 0.436 | 0.446 | 0.407 | 0.387 | 0.38 | 0.307 | 0.331 | 0.333
NCI-H1437 | 0.352 | 0.302 | 0.338 | 0.296 | 0.322 | 1.08 | 1.15 | 1.06 | 1.07 | 0.953 | 0.307 | 0.327 | 0.301 | 0.392 | 0.32 | 0.552 | 0.508 | 0.488 | 0.482 | 0.459
NCI-H2009 | 1.09 | 1.04 | 1.12 | 0.973 | 0.998 | 1.24 | 1.28 | 1.23 | 1.17 | 1.19 | 0.554 | 0.527 | 0.526 | 0.479 | 0.479 | 0.336 | 0.331 | 0.28 | 0.391 | 0.413
NCI-H1651 | 0.709 | 0.487 | 0.61 | 0.617 | 0.622 | 1.1 | 1.09 | 1.11 | 1.22 | 0.925 | 0.446 | 0.318 | 0.307 | 0.357 | 0.345 | 0.861 | 0.867 | 0.884 | 0.875 | 0.827
NCI-H1666 | 0.8 | 0.912 | 0.736 | 0.844 | 0.7 | 0.98 | 0.922 | 0.864 | 0.897 | 0.723 | 0.611 | 0.531 | 0.525 | 0.581 | 0.561 | 0.912 | 0.788 | 0.839 | 0.809 | 0.743
NCI-H1734 | 0.438 | 0.419 | 0.454 | 0.361 | 0.363 | 0.804 | 0.877 | 0.795 | 0.781 | 0.815 | 0.414 | 0.339 | 0.421 | 0.335 | 0.382 | 0.69 | 0.732 | 0.642 | 0.589 | 0.57
EPLC-272H | 0.27 | 0.346 | 0.218 | 0.395 | 0.325 | 1.16 | 1.09 | 1.01 | 0.974 | 0.96 | 0.304 | 0.27 | 0.313 | 0.3 | 0.373 | 0.318 | 0.277 | 0.285 | 0.322 | 0.314
NCI-H2023 | 0.283 | 0.251 | 0.202 | 0.202 | 0.196 | 0.991 | 0.993 | 0.921 | 0.851 | 0.729 | 0.437 | 0.483 | 0.443 | 0.422 | 0.344 | 0.719 | 0.676 | 0.551 | 0.497 | 0.355
BEN | 0.883 | 0.629 | 0.784 | 0.637 | 0.725 | 0.083 | 0.0587 | 0.063 | 0.0608 | 0.0559 | 0.289 | 0.27 | 0.268 | 0.214 | 0.279 | 0.994 | 1.02 | 0.943 | 0.804 | 0.997
COR-L 105 | 0.983 | 1.16 | 1.14 | 1.17 | 1.14 | 0.715 | 0.856 | 0.882 | 0.983 | 0.617 | 0.614 | 0.472 | 0.519 | 0.517 | 0.569 | 0.48 | 0.426 | 0.478 | 0.451 | 0.465
HCC-15 | 0.218 | 0.229 | 0.214 | 0.184 | 0.207 | 0.726 | 0.793 | 0.703 | 0.617 | 0.602 | 0.524 | 0.533 | 0.472 | 0.496 | 0.475 | 0.372 | 0.431 | 0.371 | 0.371 | 0.365
NCI-H2170 | 0.265 | 0.272 | 0.254 | 0.258 | 0.27 | 0.578 | 0.606 | 0.615 | 0.55 | 0.559 | 0.457 | 0.403 | 0.388 | 0.357 | 0.361 | 0.901 | 0.916 | 0.886 | 0.785 | 0.768
